What follows are molecules tested against T1, human NaV1.8 (Homo sapiens, UniProt Q9Y5Y9) (assay: Nav1.8 Qube® Assay (automated 384-well patch-clamp, inhibition of sodium current)). Conditions: human NaV1.8 channels stably expressed in HEK 293 cells, room temperature.
T1 construct: expressed in transfected cells
Type: cell-based
Description: Compounds were tested on human NaV1.8 and NaV1.5 channels stably expressed in human embryo kidney (HEK) 293 cells. Sodium current measurements on Qube® were conducted as follows: automated 384-well patch-clamp assays on the Qube® platform (Sophion Biosciences) were used to measure the inhibition of sodium flow through human NaV1.8 and NaV1.5 channels. Whole-cell voltage-clamp recordings were performed in QChips® (Sophion Biosciences) at room temperature. NaV1.8 current measurements on Qube® were obtained as follows: NaV1.8 currents were elicited with a 10 second 1 Hertz (Hz) pulse train from a holding potential of −90 millivolts (mV), delivered to the cells once per minute in the control condition (DMSO only) and after compound addition. The 1 hertz pulse train stimulation consisted of ten test pulses to 10 millivolt (mV) for 20 milliseconds (ms), each of which was followed by a 980 millisecond repolarization to −67 millivolts. At the end of the 10 second pulse train stimulation, a 5 second hyperpolarization step to −100 millivolt (mV) was used to recover NaV1.8 from fast inactivation. The peak currents elicited by the 1st and 10th test pulses were used to determine IC50 values for resting inhibition and inactivated state inhibition. NaV1.5 current measurements on Qube® were obtained as follows: NaV1.5 currents were elicited with a 20 second 3 Hertz pulse train in the control condition (DMSO only) and after compound addition. The pulse train consisted of sixty 20 millisecond test pulses to 0 millivolt from a holding potential of −80 millivolt (mV). The average peak currents elicited by the last 3 test pulses were used to determine IC50 values for NaV1.5 inhibition.
The following buffers were used for the Qube® recordings: External buffer for NaV1.8 Qube® recording: 150 NaCl, 2 CaCl2, 5 KCl, 1 Mg Cl2, 10 HEPES, 12 Dextrose; External buffer for Qube® NaV1.5 recording: 120 N-Methyl-D-Glucamine, 40 NaCl, 1 KCl, 2.7 CaCl2, 5 HEPES, 0.5 MgCl2; and Internal buffer for Qube® recording: 120 CsF, 30 CsCl, 10 EGTA, 5 HEPES, 5 NaF, 2 MgCl2.
For all Qube® experiments offline analysis was used to determine percent inhibition as a function of drug concentration. IC50 values were determined by fitting to the Hill equation.

T1 sequence (Q9Y5Y9 whole entry): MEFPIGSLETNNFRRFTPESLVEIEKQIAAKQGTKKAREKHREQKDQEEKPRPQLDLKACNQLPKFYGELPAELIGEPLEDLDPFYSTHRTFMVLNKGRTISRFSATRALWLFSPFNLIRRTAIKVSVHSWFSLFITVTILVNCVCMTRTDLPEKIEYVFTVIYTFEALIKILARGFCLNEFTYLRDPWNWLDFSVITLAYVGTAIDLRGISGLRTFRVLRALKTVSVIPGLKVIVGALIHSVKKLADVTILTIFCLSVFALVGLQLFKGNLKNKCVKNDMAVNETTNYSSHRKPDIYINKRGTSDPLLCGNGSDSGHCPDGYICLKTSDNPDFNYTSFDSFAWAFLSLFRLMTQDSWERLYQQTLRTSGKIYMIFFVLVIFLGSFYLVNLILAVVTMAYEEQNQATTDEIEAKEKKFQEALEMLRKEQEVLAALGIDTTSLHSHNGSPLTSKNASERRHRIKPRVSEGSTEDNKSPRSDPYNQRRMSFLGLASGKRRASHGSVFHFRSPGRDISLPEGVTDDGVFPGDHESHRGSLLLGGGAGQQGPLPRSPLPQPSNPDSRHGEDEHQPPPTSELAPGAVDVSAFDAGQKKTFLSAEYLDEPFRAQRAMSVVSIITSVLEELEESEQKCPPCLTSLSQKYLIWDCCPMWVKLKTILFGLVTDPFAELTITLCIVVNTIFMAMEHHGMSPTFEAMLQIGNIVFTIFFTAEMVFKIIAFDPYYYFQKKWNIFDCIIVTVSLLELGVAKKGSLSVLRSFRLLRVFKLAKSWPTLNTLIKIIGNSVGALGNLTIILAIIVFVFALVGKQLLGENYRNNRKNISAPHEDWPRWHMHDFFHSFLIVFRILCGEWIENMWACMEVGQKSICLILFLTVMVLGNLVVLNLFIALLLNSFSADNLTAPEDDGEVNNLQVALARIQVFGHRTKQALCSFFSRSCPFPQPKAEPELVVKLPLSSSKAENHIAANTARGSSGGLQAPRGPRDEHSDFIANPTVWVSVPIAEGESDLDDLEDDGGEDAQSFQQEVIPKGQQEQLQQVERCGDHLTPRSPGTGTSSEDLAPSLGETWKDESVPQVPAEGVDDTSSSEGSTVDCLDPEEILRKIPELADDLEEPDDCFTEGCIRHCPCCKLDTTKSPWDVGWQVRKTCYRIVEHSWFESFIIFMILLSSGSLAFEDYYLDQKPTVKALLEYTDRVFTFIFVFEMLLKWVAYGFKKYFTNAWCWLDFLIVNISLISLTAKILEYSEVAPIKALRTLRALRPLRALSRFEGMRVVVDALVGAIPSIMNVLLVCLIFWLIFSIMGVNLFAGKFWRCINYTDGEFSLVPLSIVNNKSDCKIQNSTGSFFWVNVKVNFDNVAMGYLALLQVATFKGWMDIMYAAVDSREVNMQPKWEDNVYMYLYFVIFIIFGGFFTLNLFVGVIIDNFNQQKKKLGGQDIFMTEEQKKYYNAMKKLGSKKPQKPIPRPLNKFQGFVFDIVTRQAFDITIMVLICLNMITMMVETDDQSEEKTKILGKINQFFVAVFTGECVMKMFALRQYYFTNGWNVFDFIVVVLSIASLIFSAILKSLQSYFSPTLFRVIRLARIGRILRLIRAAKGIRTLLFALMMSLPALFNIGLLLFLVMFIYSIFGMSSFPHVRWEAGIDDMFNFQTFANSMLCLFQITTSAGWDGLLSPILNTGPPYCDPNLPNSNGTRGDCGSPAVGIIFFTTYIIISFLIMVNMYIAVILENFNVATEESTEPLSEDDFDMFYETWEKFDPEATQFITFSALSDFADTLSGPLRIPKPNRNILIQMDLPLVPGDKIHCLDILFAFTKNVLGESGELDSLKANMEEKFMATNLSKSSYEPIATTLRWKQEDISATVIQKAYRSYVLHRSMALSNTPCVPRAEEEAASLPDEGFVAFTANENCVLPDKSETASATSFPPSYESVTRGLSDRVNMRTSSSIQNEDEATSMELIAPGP

SMILES	IC50 [µM]
C[C@@H]1C(=O)NCCN1C(=O)NC(c1ccc(F)c(Cl)c1)[C@@H]1C[C@@H]2[C@H](C1)C2(F)F (single isomer, unassigned) [Example 7A, (2R)-N-((R or S)-(3-chloro-4-fluoro-phenyl)((1R,3s,5S)-6,6-difluoro-bicyclo[3.1.0]hexan-3-yl)methyl)-2-methyl-3-oxo-piperazine-1-carboxamide]	0.112
C[C@@H]1C(=O)NCCN1C(=O)NC(c1ccc(F)c(Cl)c1)[C@@H]1C[C@@H]2[C@H](C1)C2(F)F (single isomer, unassigned) [Example 7B, (2R)-N-((S or R)-(3-chloro-4-fluoro-phenyl)((1R,3s,5S)-6,6-difluoro-bicyclo[3.1.0]hexan-3-yl)methyl)-2-methyl-3-oxo-piperazine-1-carboxamide]	0.0117
C[C@@H]1C(=O)NCCN1C(=O)NC(c1ccc(F)c(F)c1)[C@H]1CC[C@H](C(F)(F)F)CC1 (single isomer, unassigned) [Example 8A, (2R)-N-((R or S)-(3,4-difluoro-phenyl)(trans-4-(trifluoromethyl)cyclo-hexyl)methyl)-2-methyl-3-oxo-piperazine-1-carboxamide]	0.244
C[C@@H]1C(=O)NCCN1C(=O)NC(c1ccc(F)c(F)c1)[C@H]1CC[C@H](C(F)(F)F)CC1 (single isomer, unassigned) [Example 8B, (2R)-N-((S or R)-(3,4-difluoro-phenyl)(trans-4-(trifluoromethyl)cyclo-hexyl)methyl)-2-methyl-3-oxo-piperazine-1-carboxamide]	0.0132
C[C@@H]1C(=O)NCCN1C(=O)NC(c1ccc(F)c(Cl)c1F)[C@H]1CC[C@H](C(F)(F)F)CC1 (single isomer, unassigned) [Example 9A, (2R)-N-((R or S)-(3-chloro-2,4-difluoro-phenyl)(trans-4-(trifluoromethyl)cyclo-hexyl)methyl)-2-methyl-3-oxo-piperazine-1-carboxamide]	0.0468
C[C@@H]1C(=O)NCCN1C(=O)NC(c1ccc(F)c(Cl)c1F)[C@H]1CC[C@H](C(F)(F)F)CC1 (single isomer, unassigned) [Example 9B, (2R)-N-((S or R)-(3-chloro-2,4-difluoro-phenyl)(trans-4-(trifluoromethyl)cyclo-hexyl)methyl)-2-methyl-3-oxo-piperazine-1-carboxamide]	0.0008
O=C1CN(C(=O)NC(c2ccc(F)c(Cl)c2F)[C@H]2CC[C@H](C(F)(F)F)CC2)CCN1 (single isomer, unassigned) [Example 10A, N-((R or S)-(3-chloro-2,4-difluoro-phenyl)(trans-4-(trifluoromethyl)cyclo-hexyl)methyl)-3-oxopiperazine-1-carboxamide]	0.311
O=C1CN(C(=O)NC(c2ccc(F)c(Cl)c2F)[C@H]2CC[C@H](C(F)(F)F)CC2)CCN1 (single isomer, unassigned) [Example 10B, N-((S or R)-(3-chloro-2,4-di-fluorophenyl)(trans-4-(trifluoromethyl)-cyclohexyl)methyl)-3-oxopiperazine-1-carboxamide]	0.00387
C[C@@H]1C(=O)NCCN1C(=O)NC(c1ccc(F)c(Cl)c1F)[C@@H]1C[C@@H]2[C@H](C1)C2(F)F (single isomer, unassigned) [Example 11A, (R)-N-((R or S)-(3-chloro-2,4-difluoro-phenyl)((1R,3s,5S)-6,6-difluoro-bicyclo[3.1.0]hexan-3-yl)methyl)-2-methyl-3-oxo-piperazine-1-carboxamide]	0.87
C[C@@H]1C(=O)NCCN1C(=O)NC(c1ccc(F)c(Cl)c1F)[C@@H]1C[C@@H]2[C@H](C1)C2(F)F (single isomer, unassigned) [Example 11B, (R)-N-((S or R)-(3-chloro-2,4-difluoro-phenyl)((1R,3s,5S)-6,6-difluoro-bicyclo[3.1.0]hexan-3-yl)methyl)-2-methyl-3-oxo-piperazine-1-carboxamide]	0.00414
O=C1CN(C(=O)NC(c2ccc(F)c(Cl)c2)C23CCC(C(F)(F)F)(CC2)CC3)CCN1 (single isomer, unassigned) [Example 12A, N-((R or S)-(3-chloro-4-fluoro-phenyl)(4-(trifluoro-methyl)bicyclo[2.2.2]octan-1-yl)methyl)-3-oxopiperazine-1-carboxamide]	0.343
O=C1CN(C(=O)NC(c2ccc(F)c(Cl)c2)C23CCC(C(F)(F)F)(CC2)CC3)CCN1 (single isomer, unassigned) [Example 12B, N-((S or R)-(3-chloro-4-fluoro-phenyl)(4-(trifluoro-methyl)bicyclo[2.2.2]octan-1-yl)methyl)-3-oxopiperazine-1-carboxamide]	0.0115
C[C@@H]1C(=O)NCCN1C(=O)NC(c1ccc(F)c(Cl)c1F)C1CCC(F)(F)CC1 (single isomer, unassigned) [Example 13A, (2R)-N-((R or S)-(3-chloro-2,4-difluoro-phenyl)(4,4-difluoro-cyclohexyl)methyl)-2-methyl-3-oxo-piperazine-1-carboxamide]	0.0134
C[C@@H]1C(=O)NCCN1C(=O)NC(c1ccc(F)c(Cl)c1F)C1CCC(F)(F)CC1 (single isomer, unassigned) [Example 13B, (2R)-N-((S or R)-(3-chloro-2,4-difluoro-phenyl)(4,4-difluoro-cyclohexyl)methyl)-2-methyl-3-oxo-piperazine-1-carboxamide]	0.726
C[C@@H]1C(=O)NCCN1C(=O)NC(c1ccc(F)c(Cl)c1)C1CCC(F)(F)CC1 (single isomer, unassigned) [Example 14A, (2R)-N-((R or S)-(3-chloro-4-fluoro-phenyl)(4,4-difluoro-cyclohexyl)methyl)-2-methyl-3-oxo-piperazine-1-carboxamide]	0.0185
C[C@@H]1C(=O)NCCN1C(=O)NC(c1ccc(F)c(Cl)c1)C1CCC(F)(F)CC1 (single isomer, unassigned) [Example 14B, (2R)-N-((S or R)-(3-chloro-4-fluoro-phenyl)(4,4-difluoro-cyclohexyl)methyl)-2-methyl-3-oxo-piperazine-1-carboxamide]	0.359
C[C@@H]1C(=O)NCCN1C(=O)NC(c1ccc(F)c(Cl)c1)C1CCN(CC(F)(F)F)CC1 (single isomer, unassigned) [Example 15A]	0.0283
C[C@@H]1C(=O)NCCN1C(=O)NC(c1ccc(F)c(Cl)c1)C1CCN(CC(F)(F)F)CC1 (single isomer, unassigned) [Example 15B]	0.553
C[C@@H]1C(=O)NCCN1C(=O)NC(c1ccc(Cl)cc1)C1CCN(CC(F)(F)F)CC1 (single isomer, unassigned) [Example 16A, (2R)-N-((R or S)-(4-chlorophenyl)(1-(2,2,2-trifluoroethyl)piperidin-4-yl)methyl)-2-methyl-3-oxopiperazine-1-carboxamide]	0.366

The next lines start with the values.

IC50 [µM]	SMILES
0.936	C[C@@H]1C(=O)NCCN1C(=O)NC(c1ccc(Cl)cc1)C1CCN(CC(F)(F)F)CC1 (single isomer, unassigned) [Example 16B, (2R)-N-((S or R)-(4-chlorophenyl)(1-(2,2,2-trifluoroethyl)piperidin-4-yl)methyl)-2-methyl-3-oxopiperazine-1-carboxamide]
1.63	O=C1CN(C(=O)NC(c2ccc(F)c(Cl)c2)C2CCN(CC(F)(F)F)CC2)CCN1 (single isomer, unassigned) [Example 17A, N-((R or S)-(3-chloro-4-flurophenyl)(1-(2,2,2-trifluoroethyl)piperidin-4-yl)methyl)-3-oxopiperazine-1-carboxamide]
0.136	O=C1CN(C(=O)NC(c2ccc(F)c(Cl)c2)C2CCN(CC(F)(F)F)CC2)CCN1 (single isomer, unassigned) [Example 17B, N-((S or R)-(3-chloro-4-fluorophenyl)(1-(2,2,2-trifluoroethyl)piperidin-4-yl)methyl)-3-oxopiperazine-1-carboxamide]
0.0041	CC(N1CCC(C(NC(=O)N2CCNC(=O)[C@H]2C)c2ccc(F)c(Cl)c2)CC1)C(F)(F)F (single isomer, unassigned) [Example 18A]
0.00687	CC(N1CCC(C(NC(=O)N2CCNC(=O)[C@H]2C)c2ccc(F)c(Cl)c2)CC1)C(F)(F)F (single isomer, unassigned) [Example 18B]
0.0916	CC(N1CCC(C(NC(=O)N2CCNC(=O)[C@H]2C)c2ccc(F)c(Cl)c2)CC1)C(F)(F)F (single isomer, unassigned) [Example 18C]
0.0835	CC(N1CCC(C(NC(=O)N2CCNC(=O)[C@H]2C)c2ccc(F)c(Cl)c2)CC1)C(F)(F)F (single isomer, unassigned) [Example 18D]
0.00575	C[C@@H]1C(=O)NCCN1C(=O)NC(c1ccc(F)c(Cl)c1)C1CCC2(CC1)CC2(F)F (single isomer, unassigned) [Example 19A]
